Values after ≈ are worked out from the molar mass of the structure shown. Structures can show the parent of a compound that is named as a salt. Where two headings read alike, the source gives them in different places.
How the values were obtained:
[1] = test system: control Gram-negative E. coli 25922 strain; experiment: Antibacterial activity, microbroth dilution MIC, E. coli 25922; format: cell-based, Escherichia coli; settings: Escherichia coli; E. coli 25922, microbroth dilution; read-out: MIC, 25922
[2] = test system: Gram-positive Staphylococcus aureus (S. aureus) 29213; experiment: Antibacterial activity, microbroth dilution MIC, S. aureus 29213; format: cell-based; settings: Staphylococcus aureus; S. aureus 29213, microbroth dilution; read-out: MIC, 29213
[3] = test system: super sensitive Gram-negative Escherichia coli (E. coli) BAS849; experiment: Antibacterial activity, microbroth dilution MIC, E. coli BAS849; format: cell-based; settings: Escherichia coli, read-out: MIC, BAS849
[4] = test system: quinolone resistant E. coli LZ3111; experiment: Antibacterial activity, MIC, quinolone resistant E. coli LZ3111; format: cell-based, Escherichia coli; settings: Escherichia coli, read-out: MIC, LZ3111
From the text: The antibacterial activity from a microbroth dilution method may be presented as the minimum inhibitory concentration (MIC in […]). The MIC value is the lowest concentration of a drug which prevents macroscopically visible bacterial growth under test conditions.
Mutations in these regions are known to confer a high level resistance to the quinolone class of antibiotics.

[5] = E. coli BAS849, microbroth dilution

| SMILES | MIC [1] [µg/mL] | MIC [2] [µg/mL] | MIC [3, 5] [µg/mL] | MIC [4] [µg/mL] | MIC [3] [µg/mL] |
| --- | --- | --- | --- | --- | --- |
| CCc1cc(C(=O)O)c(=O)[nH]c1-c1ccc(OC)cc1F [Cpd 30, 5-ethyl-6-(2-fluoro-4-methoxyphenyl)-2-oxo-1,2-dihydropyridine-3-carboxylic acid] | 12.5 to 150 (≈ 42.9 to 515 µM) | 12.5 to 150 (≈ 42.9 to 515 µM) | 1 to 3.5 (≈ 3.43 to 12 µM) | 12.5 to 150 (≈ 42.9 to 515 µM) | – |
| CCc1c(-c2c(OC)cc(OC)cc2OC)[nH]c(=O)c(C(=O)O)c1O [Cpd 41, 5-ethyl-4-hydroxy-2-oxo-6-(2,4,6-trimethoxyphenyl)-1,2-dihydropyridine-3-carboxylic acid] | 12.5 to 150 (≈ 35.8 to 429 µM) | 12.5 to 150 (≈ 35.8 to 429 µM) | 12.5 to 150 (≈ 35.8 to 429 µM) | 12.5 to 150 (≈ 35.8 to 429 µM) | – |
| CCc1c(-c2ccc(OC)c(OC)c2OC)[nH]c(=O)c(C(=O)O)c1O [Cpd 42, 5-ethyl-4-hydroxy-2-oxo-6-(2,3,4-trimethoxyphenyl)-1,2-dihydropyridine-3-carboxylic acid] | 12.5 to 150 (≈ 35.8 to 429 µM) | 1 to 3.5 (≈ 2.86 to 10 µM) | < 1 | 12.5 to 150 (≈ 35.8 to 429 µM) | – |
| CCc1c(-c2ccc(N3CCCCC3)cc2F)[nH]c(=O)c(C(=O)O)c1O [Cpd 44, 5-ethyl-6-[2-fluoro-4-(piperidin-1-yl)phenyl]-4-hydroxy-2-oxo-1,2-dihydropyridine-3-carboxylic acid] | 12.5 to 150 (≈ 34.7 to 416 µM) | 1 to 3.5 (≈ 2.77 to 9.71 µM) | 1 to 3.5 (≈ 2.77 to 9.71 µM) | 12.5 to 150 (≈ 34.7 to 416 µM) | – |
| CCc1c(-c2ccc(N3CCCC3)cc2OC)[nH]c(=O)c(C(=O)O)c1O [Cpd 45, 5-ethyl-4-hydroxy-6-[2-methoxy-4-(pyrrolidin-1-yl)phenyl]-2-oxo-1,2-dihydropyridine-3-carboxylic acid] | 12.5 to 150 (≈ 34.9 to 419 µM) | 3.5 to 12.5 (≈ 9.77 to 34.9 µM) | 3.5 to 12.5 (≈ 9.77 to 34.9 µM) | 12.5 to 150 (≈ 34.9 to 419 µM) | – |
| CCc1c(-c2ccc(N3CCCCC3)cc2OC)[nH]c(=O)c(C(=O)O)c1O [Cpd 49, 5-ethyl-4-hydroxy-6-[2-methoxy-4-(piperidin-1-yl)phenyl]-2-oxo-1,2-dihydropyridine-3-carboxylic acid] | 12.5 to 150 (≈ 33.6 to 403 µM) | 3.5 to 12.5 (≈ 9.4 to 33.6 µM) | 3.5 to 12.5 (≈ 9.4 to 33.6 µM) | 12.5 to 150 (≈ 33.6 to 403 µM) | – |
| CCc1cc(C(=O)O)c(=O)[nH]c1-c1ccc(N2CCCC2)cc1OC [Cpd 50, 5-ethyl-6-[2-methoxy-4-(pyrrolidin-1-yl)phenyl]-2-oxo-1,2-dihydropyridine-3-carboxylic acid] | 12.5 to 150 (≈ 36.5 to 438 µM) | 12.5 to 150 (≈ 36.5 to 438 µM) | 12.5 to 150 (≈ 36.5 to 438 µM) | 12.5 to 150 (≈ 36.5 to 438 µM) | – |
| CCc1c(-c2ccc(N(C)C)cc2F)[nH]c(=O)c(C(=O)O)c1O [Cpd 55, 6-[4-(dimethylamino)-2-fluorophenyl]-5-ethyl-4-hydroxy-2-oxo-1,2-dihydropyridine-3-carboxylic acid] | 12.5 to 150 (≈ 39 to 468 µM) | 3.5 to 12.5 (≈ 10.9 to 39 µM) | < 1 | 12.5 to 150 (≈ 39 to 468 µM) | – |
| CCc1cc(C(=O)O)c(=O)[nH]c1-c1ccc(N2CCCCC2)c(OC)c1 [Cpd 68, 5-ethyl-6-[3-methoxy-4-(piperidin-1-yl)phenyl]-2-oxo-1,2-dihydropyridine-3-carboxylic acid] | 12.5 to 150 (≈ 35.1 to 421 µM) | 12.5 to 150 (≈ 35.1 to 421 µM) | 12.5 to 150 (≈ 35.1 to 421 µM) | 12.5 to 150 (≈ 35.1 to 421 µM) | – |
| CCc1cc(C(=O)O)c(=O)[nH]c1-c1ccc(N2Cc3ccccc3C2)cc1 [Cpd 162, 6-[4-(1,3-dihydro-2H-isoindol-2-yl)phenyl]-5-ethyl-2-oxo-1,2-dihydropyridine-3-carboxylic acid] | 12.5 to 150 (≈ 34.7 to 416 µM) | 12.5 to 150 (≈ 34.7 to 416 µM) | 3.5 to 12.5 (≈ 9.71 to 34.7 µM) | – | – |
| CCc1cc(C(=O)O)c(=O)[nH]c1-c1ccc(N2CC(N)C2)cc1 [Cpd 170, 6-[4-(3-aminoazetidin-1-yl)phenyl]-5-ethyl-2-oxo-1,2-dihydropyridine-3-carboxylic acid] | 12.5 to 150 (≈ 39.9 to 479 µM) | 12.5 to 150 (≈ 39.9 to 479 µM) | 12.5 to 150 (≈ 39.9 to 479 µM) | – | – |
| CCc1cc(C(=O)O)c(=O)[nH]c1-c1ccc(N2CC(NC(=O)OCc3ccccc3)C2)cc1 [Cpd 171, 6-[4-(3-{[(benzyloxy)carbonyl]amino}azetidin-1-yl)phenyl]-5-ethyl-2-oxo-1,2-dihydropyridine-3-carboxylic acid] | 12.5 to 150 (≈ 27.9 to 335 µM) | 12.5 to 150 (≈ 27.9 to 335 µM) | 3.5 to 12.5 (≈ 7.82 to 27.9 µM) | – | – |
| CCc1cc(C(=O)O)c(=O)[nH]c1-c1ccc(N2CCC(N(CC)CC)C2)cc1.O=C(O)C(F)(F)F (stereo not drawn) [Cpd 172, 6-{4-[3-(diethylamino)pyrrolidin-1-yl]phenyl}-5-ethyl-2-oxo-1,2-dihydropyridine-3-carboxylic acid trifluoroacetate] | 3.5 to 12.5 | 12.5 to 150 | – | – | < 1 |
| CCc1cc(C(=O)O)c(=O)[nH]c1-c1ccc(N2C[C@@H]3[C@H](C2)[C@H]3N(Cc2ccccc2)Cc2ccccc2)cc1 [Cpd 176, 6-{4-[(1R,5S,6s)-6-(dibenzylamino)-3-azabicyclo[3.1.0]hex-3-yl]phenyl}-5-ethyl-2-oxo-1,2-dihydropyridine-3-carboxylic acid hydrochloride] | 12.5 to 150 | 12.5 to 150 | 12.5 to 150 | – | – |
| CCc1cc(C(=O)O)c(=O)[nH]c1-c1ccc(N2CC3OCCN(Cc4ccccc4)C3C2)cc1.O=C(O)C(F)(F)F (stereo not drawn) [Cpd 180, 6-[4-(4-benzylhexahydropyrrolo[3,4-b][1,4]oxazin-6(2H)-yl)phenyl]-5-ethyl-2-oxo-1,2-dihydropyridine-3-carboxylic acid trifluoroacetate] | 12.5 to 150 | 12.5 to 150 | – | – | 1 to 3.5 |
| CCc1cc(C(=O)O)c(=O)[nH]c1-c1ccc(N2CCC(CN(Cc3ccccc3)Cc3ccccc3)C2)cc1.O=C(O)C(F)(F)F (stereo not drawn) [Cpd 181, 6-(4-{3-[(dibenzylamino)methyl]pyrrolidin-1-yl}phenyl)-5-ethyl-2-oxo-1,2-dihydropyridine-3-carboxylic acid trifluoroacetate] | 12.5 to 150 | 12.5 to 150 | – | – | 3.5 to 12.5 |
| CCc1cc(C(=O)O)c(=O)[nH]c1-c1ccc(N2CCO[C@H]3CNC[C@H]32)cc1.O=C(O)C(F)(F)F [Cpd 186, 5-ethyl-6-{4-[(4aR,7aS)-hexahydropyrrolo[3,4-b][1,4]oxazin-4(4aH)-yl]phenyl}-2-oxo-1,2-dihydropyridine-3-carboxylic acid trifluoroacetate] | 12.5 to 150 | 12.5 to 150 | – | – | 12.5 to 150 |
| CCc1cc(C(=O)O)c(=O)[nH]c1-c1ccc(N2C[C@H]3CCN(Cc4ccccc4)[C@H]3C2)cc1.O=C(O)C(F)(F)F [Cpd 189, 6-{4-[(3aR,6aR)-1-benzylhexahydropyrrolo[3,4-b]pyrrol-5(1H)-yl]phenyl}-5-ethyl-2-oxo-1,2-dihydropyridine-3-carboxylic acid trifluoroacetate] | 3.5 to 12.5 | 12.5 to 150 | – | – | < 1 |
| C=CCN(CC=C)c1ccc(-c2[nH]c(=O)c(C(=O)O)cc2CC)cc1 [Cpd 299, 6-{4-[di(prop-2-en-1-yl)amino]phenyl}-5-ethyl-2-oxo-1,2-dihydropyridine-3-carboxylic acid] | 12.5 to 150 (≈ 36.9 to 443 µM) | 12.5 to 150 (≈ 36.9 to 443 µM) | 1 to 3.5 (≈ 2.96 to 10.3 µM) | – | – |
| CCc1cc(C(=O)O)c(=O)[nH]c1-c1ccc(N2C[C@@H](O)[C@@H](O)C2)cc1 [Cpd 303, 6-{4-[(3R,4S)-3,4-dihydroxypyrrolidin-1-yl]phenyl}-5-ethyl-2-oxo-1,2-dihydropyridine-3-carboxylic acid] | 12.5 to 150 (≈ 36.3 to 436 µM) | 12.5 to 150 (≈ 36.3 to 436 µM) | < 1 | – | – |
| CCc1cc(C(=O)O)c(=O)[nH]c1-c1ccc(N(C)C)s1 [Cpd 305, 6-[5-(dimethylamino)thiophen-2-yl]-5-ethyl-2-oxo-1,2-dihydropyridine-3-carboxylic acid] | 12.5 to 150 (≈ 42.8 to 513 µM) | 12.5 to 150 (≈ 42.8 to 513 µM) | < 1 | – | – |
| CCc1c(-c2ccc(N3CCCC3)s2)[nH]c(=O)c(C(=O)O)c1O [Cpd 307, 5-ethyl-4-hydroxy-2-oxo-6-[5-(pyrrolidin-1-yl)thiophen-2-yl]-1,2-dihydropyridine-3-carboxylic acid] | 12.5 to 150 (≈ 37.4 to 449 µM) | 3.5 to 12.5 (≈ 10.5 to 37.4 µM) | < 1 | – | – |
| CCc1cc(C(=O)O)c(=O)[nH]c1-c1ccc(N2CCCCC2)s1 [Cpd 308, 5-ethyl-2-oxo-6-[5-(piperidin-1-yl)thiophen-2-yl]-1,2-dihydropyridine-3-carboxylic acid] | 12.5 to 150 (≈ 37.6 to 451 µM) | 12.5 to 150 (≈ 37.6 to 451 µM) | 1 to 3.5 (≈ 3.01 to 10.5 µM) | – | – |
| CCc1c(-c2ccc(N3CCCCC3)s2)[nH]c(=O)c(C(=O)O)c1O [Cpd 309, 5-ethyl-4-hydroxy-2-oxo-6-[5-(piperidin-1-yl)thiophen-2-yl]-1,2-dihydropyridine-3-carboxylic acid] | 12.5 to 150 (≈ 35.9 to 431 µM) | 3.5 to 12.5 (≈ 10 to 35.9 µM) | < 1 | – | – |
| CCc1cc(C(=O)O)c(=O)[nH]c1-c1ccc(OC(C)(C)C)cc1 [Cpd 311, 6-(4-tert-butoxyphenyl)-5-ethyl-2-oxo-1,2-dihydropyridine-3-carboxylic acid] | 12.5 to 150 (≈ 39.6 to 476 µM) | 12.5 to 150 (≈ 39.6 to 476 µM) | 3.5 to 12.5 (≈ 11.1 to 39.6 µM) | – | – |
| CCc1cc(C(=O)O)c(=O)[nH]c1-c1ccnn1C [Cpd 344, 5-ethyl-6-(1-methyl-1H-pyrazol-5-yl)-2-oxo-1,2-dihydropyridine-3-carboxylic acid] | 12.5 to 150 (≈ 50.6 to 607 µM) | 12.5 to 150 (≈ 50.6 to 607 µM) | 12.5 to 150 (≈ 50.6 to 607 µM) | – | – |
| CCc1c(-c2ccnn2C)[nH]c(=O)c(C(=O)O)c1O [Cpd 345, 5-ethyl-4-hydroxy-6-(1-methyl-1H-pyrazol-5-yl)-2-oxo-1,2-dihydropyridine-3-carboxylic acid] | 12.5 to 150 (≈ 47.5 to 570 µM) | 12.5 to 150 (≈ 47.5 to 570 µM) | 12.5 to 150 (≈ 47.5 to 570 µM) | – | – |
| CCc1cc(C(=O)O)c(=O)[nH]c1-c1cnn(C)c1 [Cpd 346, 5-ethyl-6-(1-methyl-1H-pyrazol-4-yl)-2-oxo-1,2-dihydropyridine-3-carboxylic acid] | 12.5 to 150 (≈ 50.6 to 607 µM) | 12.5 to 150 (≈ 50.6 to 607 µM) | 12.5 to 150 (≈ 50.6 to 607 µM) | – | – |
| CCc1c(-c2cnn(C)c2)[nH]c(=O)c(C(=O)O)c1O [Cpd 347, 5-ethyl-4-hydroxy-6-(1-methyl-1H-pyrazol-4-yl)-2-oxo-1,2-dihydropyridine-3-carboxylic acid] | 3.5 to 12.5 (≈ 13.3 to 47.5 µM) | 12.5 to 150 (≈ 47.5 to 570 µM) | 1 to 3.5 (≈ 3.8 to 13.3 µM) | – | – |
